Reference: patent publication US20260226067A1, “MODULATORS OF TRPML, THEIR COMPOSITIONS AND METHODS OF USE” (Caraway Therapuetics, Inc., priority 2023, published 2026)

Legend:
Human TRPML3 = molecular target: T1, Human TRPML3 (Homo sapiens, UniProt Q8TDD5); experiment: Fluorescent TRPML3 assay (as for TRPML1); format: cell-based; details: as TRPML1 assay with TRPML3 subtype; read-out: Human TRPML 3 EC50
T1 construct: expressed in transfected cells
T1 sequence (Q8TDD5 1-553): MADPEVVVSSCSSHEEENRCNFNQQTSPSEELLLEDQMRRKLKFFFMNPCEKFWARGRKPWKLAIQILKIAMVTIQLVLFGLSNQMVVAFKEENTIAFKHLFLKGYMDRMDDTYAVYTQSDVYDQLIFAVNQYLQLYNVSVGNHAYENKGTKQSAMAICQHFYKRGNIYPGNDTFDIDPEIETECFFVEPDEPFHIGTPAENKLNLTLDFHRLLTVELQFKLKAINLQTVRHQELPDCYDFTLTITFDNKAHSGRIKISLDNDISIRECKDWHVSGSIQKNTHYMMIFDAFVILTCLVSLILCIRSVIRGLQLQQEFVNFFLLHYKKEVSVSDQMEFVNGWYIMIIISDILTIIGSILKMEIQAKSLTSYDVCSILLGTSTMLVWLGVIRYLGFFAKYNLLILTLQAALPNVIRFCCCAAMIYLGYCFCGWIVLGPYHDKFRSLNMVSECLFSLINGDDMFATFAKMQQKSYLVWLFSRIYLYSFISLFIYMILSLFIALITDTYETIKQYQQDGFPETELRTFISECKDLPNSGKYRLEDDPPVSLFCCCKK
Description: (§1) HEK-293 Trex cells were stably transfected with a construct consisting of the human coding sequence for TRPML1 cloned into the tet-inducible plasmid pCDNA5 T/O. Mutations were introduced into the TRPML1 sequence to facilitate expression on the cell surface (Silvia Vergarajauregui, Rosa Puertollano Traffic. 2006 March; 7(3): 337-353). Briefly, the cells are cultured in 150 mm round tissue culture dishes containing 20 mL of media. The day before the assay the cells are rinsed with DPBS-Ca-Mg and then treated briefly with Trypsin-EDTA. The Trypsin-EDTA is diluted with growth media, and cells are counted. 38×10^6 cells are re-plated into 150 mm round tissue culture dishes in media containing 0.5 ug/mL doxycycline to induce expression of hTRPML1.
(§2) The day of the experiment cells are lifted from the plates as above and collected by centrifugation. The cells are then suspended in dye loading buffer consisting of Ringer's solution supplemented with 0.1% Pluronic Acid and 1 micromolar Fluo4-AM dye. Cells are loaded for ~60 minutes in the dark with occasional mixing. The cells are collected by centrifugation, the loading media aspirated, and the cells resuspended in 25 mL Ringer's solution and incubated ~60 minutes in the dark. The cells are again collected by centrifugation, rinsed in Ringer's Solution and resuspended to 0.2×10^6 cells/mL in modified Ringer's solution containing 10 mM calcium.
(§3) Compounds are dissolved to a concentration of 10 millimolar with DMSO. Compound plates are created by dispensing compounds into 384 well black wall clear bottom plates (Greiner 781091). Positive and negative controls are included on each plate. Typically, different amounts of each compound are tested ranging from 100 nanoMoles (20 micromolar final concentration) decreasing in half-log steps to 31 picoMoles (6 nanomolar final concentration). Each concentration is typically tested in triplicate.
(§4) 50 microliters of dye-loaded cells are dispensed into each well of the compound assay plate created above. The fluorescence in each well is then determined with an excitation wavelength of 480 nm and an emission wavelength of 540 nm using either a Molecular Devices SpectraMax multimode plate reader or a Hamamatsu FDSS/uCell plate imager.
(§5) The resulting fluorescence for each well is exported as an ascii file and loaded into our LIMS for analysis. The percent activity of each compound at each concentration is determined by comparison to the positive and negative control wells included in each plate.
(§6) Assays for TRPML2 and TRPML3 were performed as above for TRPML1, by substituting the appropriate TRPML2 or TRPML3 subtype for the TRPML1.
(§7) EC50 values were calculated using a non-linear regression of Prism. In the table, “A” indicates an EC50 of less than 100 nM, “B” indicates an EC50 range from 100 nM to 500 nM; “C” indicates an EC50 range from 500 nM to 2 μM; and “D” indicates an EC50 greater than 2 μM.

human TRPML1 = human TRPML1 (Homo sapiens, UniProt Q9GZU1); experiment: Fluorescent TRPML1 assay (Fluo4-AM calcium fluorescence); format: cell-based; details: HEK-293 Trex cells expressing hTRPML1, Fluo4-AM fluorescence; read-out: Human TRPML 1 EC50
Description: as §1, §2, §3, §4, §5, §7

Human TRPML2 = molecular target: T2, Human TRPML2 (Homo sapiens, UniProt Q8IZK6); experiment: Fluorescent TRPML2 assay (as for TRPML1); format: cell-based; details: as TRPML1 assay with TRPML2 subtype; read-out: Human TRPML 2 EC50
T2 construct: expressed in transfected cells
T2 sequence (Q8IZK6 1-566): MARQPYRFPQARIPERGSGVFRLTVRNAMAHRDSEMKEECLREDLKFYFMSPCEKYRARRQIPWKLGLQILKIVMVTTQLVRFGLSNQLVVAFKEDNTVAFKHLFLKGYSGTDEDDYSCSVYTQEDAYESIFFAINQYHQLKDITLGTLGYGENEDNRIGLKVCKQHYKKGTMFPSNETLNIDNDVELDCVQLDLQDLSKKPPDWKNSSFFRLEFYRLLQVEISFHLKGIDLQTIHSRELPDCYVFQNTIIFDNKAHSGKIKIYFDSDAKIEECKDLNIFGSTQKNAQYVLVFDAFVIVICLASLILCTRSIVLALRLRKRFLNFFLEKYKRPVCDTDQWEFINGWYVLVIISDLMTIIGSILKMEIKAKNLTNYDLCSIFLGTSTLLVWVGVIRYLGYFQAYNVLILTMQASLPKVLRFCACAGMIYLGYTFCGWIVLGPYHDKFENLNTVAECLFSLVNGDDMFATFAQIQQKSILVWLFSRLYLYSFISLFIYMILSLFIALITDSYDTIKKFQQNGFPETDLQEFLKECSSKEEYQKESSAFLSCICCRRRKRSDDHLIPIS
Description: as §1, §2, §3, §4, §5, §6, §7

TRPMLs = details: background statement; cited from earlier work

Chain of human TRPML1 (Q9GZU1 whole entry L15A/L16A/L577A/L578A, form open): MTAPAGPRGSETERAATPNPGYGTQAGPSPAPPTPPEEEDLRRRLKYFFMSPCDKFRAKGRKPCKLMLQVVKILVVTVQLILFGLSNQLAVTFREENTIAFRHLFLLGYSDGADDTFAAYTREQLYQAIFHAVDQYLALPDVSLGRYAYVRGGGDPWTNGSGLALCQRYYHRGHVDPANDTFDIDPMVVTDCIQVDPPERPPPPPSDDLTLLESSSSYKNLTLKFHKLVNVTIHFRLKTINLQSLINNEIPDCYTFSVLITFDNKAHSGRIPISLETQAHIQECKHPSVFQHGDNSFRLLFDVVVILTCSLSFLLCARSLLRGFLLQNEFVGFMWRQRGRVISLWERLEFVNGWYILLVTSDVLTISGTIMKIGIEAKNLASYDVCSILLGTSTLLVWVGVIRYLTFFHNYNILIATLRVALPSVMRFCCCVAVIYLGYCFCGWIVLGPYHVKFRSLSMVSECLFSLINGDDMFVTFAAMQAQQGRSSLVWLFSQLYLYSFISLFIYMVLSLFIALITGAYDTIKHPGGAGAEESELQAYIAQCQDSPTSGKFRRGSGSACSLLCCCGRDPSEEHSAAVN

Question: Which EC50 (Human TRPML3) does the source give for `C[C@@H]1CN(c2ncnc3c2c(N2CCC2)cn3-c2cccc(F)c2)[C@@H](C)CN1C(=O)c1ccccc1` [Compound 108, ((2R,5S)-4-(5-(azetidin-1-yl)-7-(3-fluorophenyl)-7H-pyrrolo[2,3-d]pyrimidin-4-yl)-2,5-dimethylpiperazin-1-yl)(phenyl)methanone] here?
Answer: Its EC50 is 500 to 2000 nM.

Question: And the EC50 (human TRPML1)?
Answer: Its EC50 is under 100 nM.

Question: What about the EC50 (Human TRPML2) of the same molecule?
Answer: The EC50 was 500 to 2000 nM.

Question: Which EC50 (Human TRPML3) does the source give for `C[C@@H]1CN(c2ncnc3c2c(-c2ccccc2F)cn3-c2cc(C#N)ccn2)[C@@H](C)CN1C(=O)c1ccccc1` [Compound 109, 2-(4-((2S,5R)-4-benzoyl-2,5-dimethylpiperazin-1-yl)-5-(2-fluorophenyl)-7H-pyrrolo[2,3-d]pyrimidin-7-yl)isonicotinonitrile] here?
Answer: Its EC50 is under 100 nM.

Question: And the EC50 (human TRPML1)?
Answer: The EC50 was under 100 nM.

Question: And the EC50 (Human TRPML2)?
Answer: The EC50 was 100 to 500 nM.

Question: What does the source list for `C[C@@H]1CN(c2ncnc3c2c(C2CCC2)cn3-c2cc(C#N)ccn2)[C@@H](C)CN1C(=O)c1ccccc1` [Compound 110, 2-(4-((2S,5R)-4-benzoyl-2,5-dimethylpiperazin-1-yl)-5-cyclobutyl-7H-pyrrolo[2,3-d]pyrimidin-7-yl)isonicotinonitrile]?
Answer: EC50 (Human TRPML3): 100 to 500 nM; EC50 (human TRPML1): < 100 nM; EC50 (Human TRPML2): 100 to 500 nM

Question: With `Cc1ccccc1C(=O)N1C[C@H](C)N(c2ncnc3c2c(N2CCC2)cn3-c2cc(C#N)ccn2)C[C@H]1C` [Compound 112, 2-(5-(azetidin-1-yl)-4-((2S,5R)-2,5-dimethyl-4-(2-methylbenzoyl)piperazin-1-yl)-7H-pyrrolo[2,3-d]pyrimidin-7-yl)isonicotinonitrile] as the molecule, how does the EC50 (Human TRPML3) read?
Answer: The EC50 was 100 to 500 nM.

Question: What about the EC50 (human TRPML1) of the same molecule?
Answer: Its EC50 is 100 to 500 nM.

Question: What about the EC50 (Human TRPML2) of the same molecule?
Answer: The EC50 was 500 to 2000 nM.

Question: With `C[C@@H]1CN(c2ncnc3c2c(N2CCC2)cn3-c2cc(C#N)ccn2)[C@@H](C)CN1C(=O)c1ccccc1F` [Compound 113, 2-(5-(azetidin-1-yl)-4-((2S,5R)-4-(2-fluorobenzoyl)-2,5-dimethylpiperazin-1-yl)-7H-pyrrolo[2,3-d]pyrimidin-7-yl)isonicotinonitrile] as the molecule, how does the EC50 (Human TRPML3) read?
Answer: The EC50 was 500 to 2000 nM.

Question: And the EC50 (human TRPML1)?
Answer: Its EC50 is 100 to 500 nM.

Question: And the EC50 (Human TRPML2)?
Answer: Its EC50 is 100 to 500 nM.

Question: Which results are given for `C[C@@H]1CN(c2ncnc3c2c(N2CCC2)cn3-c2cc(C#N)ccn2)[C@@H](C)CN1C(=O)c1cccc(F)c1` [Compound 114, 2-(5-(azetidin-1-yl)-4-((2S,5R)-4-(3-fluorobenzoyl)-2,5-dimethylpiperazin-1-yl)-7H-pyrrolo[2,3-d]pyrimidin-7-yl)isonicotinonitrile]?
Answer: EC50 (Human TRPML3): 100 to 500 nM; EC50 (human TRPML1): 100 to 500 nM; EC50 (Human TRPML2): 100 to 500 nM

Question: For `C[C@@H]1CN(c2ncnc3c2c(-c2ccccc2)cn3-c2cc(C#N)ccn2)[C@@H](C)CN1C(=O)c1ccccc1` [Compound 116, 2-(4-((2S,5R)-4-benzoyl-2,5-dimethylpiperazin-1-yl)-5-phenyl-7H-pyrrolo[2,3-d]pyrimidin-7-yl)isonicotinonitrile], which EC50 (Human TRPML3) is on record?
Answer: The EC50 was 100 to 500 nM.

Question: What about the EC50 (human TRPML1) of the same molecule?
Answer: Its EC50 is under 100 nM.

Question: What about the EC50 (Human TRPML2) of the same molecule?
Answer: The EC50 was 500 to 2000 nM.

Question: With `COc1ccccc1C(=O)N1C[C@H](C)N(c2ncnc3c2c(-c2ccccc2F)cn3-c2cc(C#N)ccn2)C[C@H]1C` [Compound 119, 2-(5-(2-fluorophenyl)-4-((2S,5R)-4-(2-methoxybenzoyl)-2,5-dimethylpiperazin-1-yl)-7H-pyrrolo[2,3-d]pyrimidin-7-yl)isonicotinonitrile] as the molecule, how does the EC50 (Human TRPML3) read?
Answer: The EC50 was under 100 nM.

Question: What about the EC50 (human TRPML1) of the same molecule?
Answer: The EC50 was under 100 nM.

Question: What about the EC50 (Human TRPML2) of the same molecule?
Answer: Its EC50 is 100 to 500 nM.

Question: What does the source list for `CC(C)c1ccccc1C(=O)N1C[C@H](C)N(c2ncnc3c2c(-c2ccccc2F)cn3-c2cc(C#N)ccn2)C[C@H]1C` [Compound 120, 2-(5-(2-fluorophenyl)-4-((2S,5R)-4-(2-isopropylbenzoyl)-2,5-dimethylpiperazin-1-yl)-7H-pyrrolo[2,3-d]pyrimidin-7-yl)isonicotinonitrile]?
Answer: EC50 (Human TRPML3): < 100 nM; EC50 (human TRPML1): < 100 nM; EC50 (Human TRPML2): 100 to 500 nM

Question: Which results are given for `C[C@@H]1CN(c2ncnc3c2c(-c2ccccc2F)cn3-c2cc(C#N)ccn2)[C@@H](C)CN1C(=O)c1ccccc1N(C)C` [Compound 121, 2-(4-((2S,5R)-4-(2-(dimethylamino)benzoyl)-2,5-dimethylpiperazin-1-yl)-5-(2-fluorophenyl)-7H-pyrrolo[2,3-d]pyrimidin-7-yl)isonicotinonitrile]?
Answer: EC50 (Human TRPML3): < 100 nM; EC50 (human TRPML1): < 100 nM; EC50 (Human TRPML2): 100 to 500 nM

Question: For `C[C@H]1CN(C(=O)c2ccccc2)CCN1c1ncnc2c1c(-c1ccccc1F)cn2-c1cc(C#N)ccn1` [Compound 122, (S)-2-(4-(4-benzoyl-2-methylpiperazin-1-yl)-5-(2-fluorophenyl)-7H-pyrrolo[2,3-d]pyrimidin-7-yl)isonicotinonitrile], which EC50 (Human TRPML3) is on record?
Answer: Its EC50 is 100 to 500 nM.

Question: What about the EC50 (human TRPML1) of the same molecule?
Answer: Its EC50 is under 100 nM.

Question: And the EC50 (Human TRPML2)?
Answer: The EC50 was 500 to 2000 nM.

Question: Which “concentration needed to effectively activate TRPMLs” value (TRPMLs) does the source give for `CC1CC(C)(C)N(C(=O)CN2C(=O)c3ccccc3C2=O)c2ccccc21` (stereo not shown) [ML-SA1] here?
Answer: Its value is ~ 10 μM.
